Test results from article PMC7486940, “Pre-symptomatic Caspase-1 inhibitor delays cognitive decline in a mouse model of Alzheimer disease and aging” (Nature Communications, 2020).
pIC50: −log10 of the molar value. Values joined by “and” are separate entries in the source; they are usually repeats but may differ in a detail not shown here. Equal values may be shown once. Read-outs that look alike come from different tables or passages of the source. Marks after values point to notes of the source that are not given here.

Experiments:
[1] = cited from earlier work
[2] = set-up: method as in PMID 30254377; conditions: 50 mg/kg dose of VX-765, carotid infusion, J20 mice; cited from earlier work
Casp1 = system: Casp1; set-up: method as in PMID 30254377; conditions: in vitro Casp1; cited from earlier work
[3] = VX-765 and VRT-043198 pharmacokinetics (LC-MS/MS) in plasma, whole brain and CSF after a single IP dose of VX-765
Method: Plasma, whole brain and CSF concentrations of VX-765 and its active metabolite, VRT-043198, were determined by LC-MS/MS at Paraza Pharma (Montreal, QC, Canada). Fourteen C57BL/6J female mice received a single IP dose of 50 mg · kg^−1 VX-765 and 2 mice per time point were euthanized at 0.25, 0.5, 1, 3, 6, 8 and 24 h post-injection. Mice were isoflurane anesthetized to collect CSF and perform a cardiac puncture followed by whole body perfusion with PBS. Plasma samples were extracted 1:1 in spiking solution and internal standard solution containing 0.1 μM glyburide in acetonitrile. Brain and CSF samples were extracted 1:1 in spiking solution and internal standard solution containing 0.2 μM labetalol in 50:50 methanol:acetonitrile. Samples were centrifuged at 4000 × g for 10 min at 4 °C, the plasma supernatant diluted 1:1 and the brain and CSF supernatant diluted 1:2 in H2O, and 5 μl was injected into a Quantis LC-MS/MS system for analysis.

APP23 mice = system: APP23 mice; set-up: method as in PMID 16095884; conditions: 2-month pre-symptomatic treatment, 3-week WO; cited from earlier work
[4] = system: APP/PS1 mouse model of AD; set-up: method as in Woodling et al., Brain 2016; conditions: three month treatment given one month before the appearance of deficits, ref Woodling et al., Brain 2016; cited from earlier work
APP/PS1 = system: APP/PS1; set-up: method as in PMID 29191754; conditions: 1-month pre-treatment, 3-week WO; cited from earlier work
[5] = CSF, 0.50 h after single IP 50 mg/kg VX-765
[6] = CSF, 1 h after single IP 50 mg/kg VX-765
[7] = CSF, 3 h after single IP 50 mg/kg VX-765, some blood contamination during CSF collection
[8] = CSF, 8 h after single IP 50 mg/kg VX-765, some blood contamination during CSF collection
[9] = plasma, 0.25 h after single IP 50 mg/kg VX-765
[10] = plasma, 0.50 h after single IP 50 mg/kg VX-765
[11] = plasma, 1 h after single IP 50 mg/kg VX-765
[12] = plasma, 3 h after single IP 50 mg/kg VX-765
[13] = plasma, 6 h after single IP 50 mg/kg VX-765
[14] = plasma, 8 h after single IP 50 mg/kg VX-765
[15] = plasma, single IP 50 mg/kg VX-765
[16] = whole brain, 0.25 h after single IP 50 mg/kg VX-765
[17] = whole brain, 0.50 h after single IP 50 mg/kg VX-765
[18] = whole brain, 1 h after single IP 50 mg/kg VX-765, NQ = not quantifiable, LLOQ 0.025 μM VX-765, 0.049 μM VRT-043198
[19] = whole brain, single IP 50 mg/kg VX-765

SMILES: CC(C)(C)[C@H](NC(=O)c1ccc(N)c(Cl)c1)C(=O)N1CCC[C@H]1C(=O)N[C@H](C=O)CC(=O)O [VRT-043198]
- in vitro half-life (t1/2) [1]: ~3 h
- concentration in the J20 brain [2]: 2 to 5 µM
- pIC50 (Casp1): 8.00
- CSF concentration, Mouse 2 ([3]; CSF, 0.25 h after single IP 50 mg/kg VX-765): 3.11 µM
- CSF concentration, Mean ([3]; CSF, 0.25 h after single IP 50 mg/kg VX-765, n = 2): 42.9 µM
- CSF concentration, Mouse 1 ([3]; CSF, 0.25 h after single IP 50 mg/kg VX-765, some blood contamination during CSF collection): 82.6* μM
- CSF concentration, Mouse 1 [3, 5]: 0.44 µM
- CSF concentration, Mouse 2 [3, 5]: 7.00 µM
- CSF concentration, Mean ([3]; CSF, 0.50 h after single IP 50 mg/kg VX-765, n = 2): 3.72 µM
- CSF concentration, Mouse 1 [3, 6]: 0.43 µM
- CSF concentration, Mouse 2 [3, 6]: 0.58 µM
- CSF concentration, Mean ([3]; CSF, 1 h after single IP 50 mg/kg VX-765, n = 2): 0.50 µM
- CSF concentration, Mean ([3]; CSF, 3 h after single IP 50 mg/kg VX-765, n = 2): 0.28 µM
- CSF concentration, Mouse 1 [3, 7]: 0.42* μM
- CSF concentration, Mouse 2 [3, 7]: 0.15* μM
- CSF concentration, Mean ([3]; CSF, 6 h after single IP 50 mg/kg VX-765): 0.21 µM
- CSF concentration, Mouse 2 ([3]; CSF, 6 h after single IP 50 mg/kg VX-765, some blood contamination during CSF collection): 0.21* μM
- CSF concentration, Mean ([3]; CSF, 8 h after single IP 50 mg/kg VX-765, n = 2): 0.36 µM
- CSF concentration, Mouse 1 [3, 8]: 0.13* μM
- CSF concentration, Mouse 2 [3, 8]: 0.60* μM
- MRTinf in CSF, Mean ([3]; CSF, single IP 50 mg/kg VX-765): 48.6 min
- MRTinf in CSF, Mouse 1 ([3]; CSF, single IP 50 mg/kg VX-765): 48.6 min
- Tmax in CSF, Mean ([3]; CSF, single IP 50 mg/kg VX-765): 22.8 min
- Tmax in CSF, Mouse 1 ([3]; CSF, single IP 50 mg/kg VX-765): 15 min
- Tmax in CSF, Mouse 2 ([3]; CSF, single IP 50 mg/kg VX-765): 30 min
- CSF concentration relative to respective in vitro Casp1 IC50 ([3]; CSF, within 0.25 h post-injection, single IP 50 mg/kg VX-765): 4000 fold
- brain concentration relative to respective in vitro Casp1 IC50 ([3]; brain, within 0.25 h post-injection, single IP 50 mg/kg VX-765): 170 fold
- plasma concentration, Mouse 1 [3, 9]: 201.8 µM
- plasma concentration, Mouse 2 [3, 9]: 180.4 µM
- plasma concentration, Mean ([3]; plasma, 0.25 h after single IP 50 mg/kg VX-765, n = 2): 191.1 µM
- plasma concentration, Mouse 1 [3, 10]: 338.1 µM
- plasma concentration, Mouse 2 [3, 10]: 104.1 µM
- plasma concentration, Mean ([3]; plasma, 0.50 h after single IP 50 mg/kg VX-765, n = 2): 221.1 µM
- plasma concentration, Mouse 1 [3, 11]: 24.4 µM
- plasma concentration, Mouse 2 [3, 11]: 51.0 µM
- plasma concentration, Mean ([3]; plasma, 1 h after single IP 50 mg/kg VX-765, n = 2): 37.7 µM
- plasma concentration, Mouse 1 [3, 12]: 1.16 µM
- plasma concentration, Mouse 2 [3, 12]: 0.78 µM
- plasma concentration, Mean ([3]; plasma, 3 h after single IP 50 mg/kg VX-765, n = 2): 0.97 µM
- plasma concentration, Mouse 1 [3, 13]: 0.46 µM
- plasma concentration, Mouse 2 [3, 13]: 0.30 µM
- plasma concentration, Mean ([3]; plasma, 6 h after single IP 50 mg/kg VX-765, n = 2): 0.38 µM
- plasma concentration, Mouse 1 [3, 14]: 0.35 µM
- plasma concentration, Mouse 2 [3, 14]: 0.24 µM
- plasma concentration, Mean ([3]; plasma, 8 h after single IP 50 mg/kg VX-765, n = 2): 0.30 µM
- MRTinf in plasma, Mouse 1 [3, 15]: 40.2 min
- MRTinf in plasma, Mouse 2 [3, 15]: 46.8 min
- Tmax in plasma, Mouse 1 [3, 15]: 30 min
- Tmax in plasma, Mouse 2 [3, 15]: 15 min
- plasma concentration relative to respective in vitro Casp1 IC50 ([3]; plasma, within 0.25 h post-injection, single IP 50 mg/kg VX-765): 20,000 fold
- Cmax ([3]; read-out: Cmax in CSF, Mean, CSF, single IP 50 mg/kg VX-765): 44.8 µM
- Cmax ([3]; read-out: Cmax in CSF, Mouse 1, CSF, single IP 50 mg/kg VX-765): 82.6 µM
- Cmax ([3]; read-out: Cmax in CSF, Mouse 2, CSF, single IP 50 mg/kg VX-765): 7 µM
- Cmax ([3]; read-out: Cmax in brain, Mean, whole brain, single IP 50 mg/kg VX-765): 1.7 µM
- Cmax ([3]; read-out: Cmax in brain, Mouse 1, whole brain, single IP 50 mg/kg VX-765): 2.54 µM
- Cmax ([3]; read-out: Cmax in brain, Mouse 2, whole brain, single IP 50 mg/kg VX-765): 0.85 µM
- Cmax ([3]; read-out: Cmax in plasma, Mean, plasma, single IP 50 mg/kg VX-765): 259 µM
- Cmax ([3]; read-out: Cmax in plasma, Mouse 1, plasma, single IP 50 mg/kg VX-765): 338 µM
- Cmax ([3]; read-out: Cmax in plasma, Mouse 2, plasma, single IP 50 mg/kg VX-765): 180 µM
- brain concentration, Mouse 1 [3, 16]: 2.54 µM
- brain concentration, Mouse 2 [3, 16]: 0.85 µM
- brain concentration, Mean ([3]; whole brain, 0.25 h after single IP 50 mg/kg VX-765, n = 2): 1.70 µM
- brain concentration, Mouse 1 [3, 17]: 0.59 µM
- brain concentration, Mouse 2 [3, 17]: 0.65 µM
- brain concentration, Mean ([3]; whole brain, 0.50 h after single IP 50 mg/kg VX-765, n = 2): 0.62 µM
- brain concentration, Mean ([3]; whole brain, 1 h after single IP 50 mg/kg VX-765): 0.24 µM
- brain concentration, Mouse 1 [3, 18]: 0.21 µM
- brain concentration, Mouse 2 [3, 18]: 0.27 µM
- brain concentration, Mean ([3]; whole brain, 3 h after single IP 50 mg/kg VX-765): 0.08 µM
- brain concentration, Mouse 1 ([3]; whole brain, 3 h after single IP 50 mg/kg VX-765, NQ = not quantifiable, LLOQ 0.025 μM VX-765, 0.049 μM VRT-043198): 0.08 µM
- Half-life (t1/2) in brain, Mouse 1 [3, 19]: 59.4 min
- MRTinf in brain, Mean [3, 19]: 52.2 min
- MRTinf in brain, Mouse 1 [3, 19]: 58.8 min
- MRTinf in brain, Mouse 2 [3, 19]: 45.6 min
- Tmax in brain, Mean [3, 19]: 15 min
- Tmax in brain, Mouse 1 [3, 19]: 15 min
- Tmax in brain, Mouse 2 [3, 19]: 15 min
- Half-life (t1/2) in brain, Mean ([3]; whole brain, single IP 50 mg/kg VX-765, 50 mg/kg): 60 min and 59.4 min

SMILES: COc1ccc2c3c1O[C@H]1C[C@@H](O)C=C[C@@]31CCN(C)C2 [galantamine]
- Morris water maze acquisition and spatial memory (APP23 mice): improved acquisition and spatial memory in the Morris water maze

SMILES: CC12CC3CC(C)(C1)CC(N)(C3)C2 [memantine]
- Morris water maze acquisition and spatial memory (APP23 mice): improved acquisition and spatial memory in the Morris water maze

SMILES: CC(C)Cc1ccc(C(C)C(=O)O)cc1 (stereo not shown) [ibuprofen]
- cognitive impairment on NOR [4]: prevention of cognitive impairment

SMILES: CN1CCN(CCOc2cc(OC3CCOCC3)c3c(Nc4c(Cl)ccc5c4OCO5)ncnc3c2)CC1 [saracatinib]
- NOR performance (APP/PS1): continued improved performance in NOR
